Assay [1] is described as follows: 5(6)-Carboxyfluorescein leakage from lipid vesicles. The conditions noted are these: 10 mM TRIS, 107 mM NaCl, pH 7.4; peptide added at 50 s. How it is done:
(§1) Preparation A thin lipid film was prepared by evaporating a solution of 25 mg Egg PC or Egg PG in 1 mL MeOH/CHCl3 1/1 on a rotary evaporator (rt) and then in vacuo overnight. The resulting film was hydrated with 1 mL buffer (50 mM CF, 10 mM TIRS, 10 mM NaCl, pH 7.4) for 30 min, subjected to freeze-thaw cycles (7×) and extrusion (15×) through a polycarbonate membrane (pore size 100 nm). Extravesicular components were removed by gel filtration (Sephadex G-50) with 10 mM TRIS, 107 mM NaCl, pH 7.4. Final conditions: ˜2.5 mM Egg PC or Egg PG; inside: 50 mM CF, 10 mM TIRS, 10 mM NaCl, pH 7.4; outside: 10 mM TRIS, 107 mM NaCl, pH 7.4.
(§2) Experiment Egg PC or Egg PG stock solutions (37.5 μL) were diluted with a buffer (10 mM TRIS, 107 mM NaCl, pH 7.4) and placed in a thermostated fluorescence cuvette (25° C.) and gently stirred (total volume in the cuvette ˜3000 μL; final lipid concentration ˜31.25 μM). CF efflux was monitored at λem 517 nm (λex 492 nm) as a function of time after addition of 20 μL of peptide dendrimer in buffer (10 mM TRIS, 107 mM NaCl, pH 7.4) with final concentrations of 1, 5, 7.5, 10, 15, 20, 25, 30 μg/mL at t=50 s and 1.2% trition X-100 (30 μL, 0.012% final concentration) at t=300 s. Fluorescence intensities were normalized to fractional emission intensity I(t) using I(t)=(It−I0)/(I∞−I0) where I0 It at peptide dendrimer addition, I∞=It at saturation of lysis.
Bacterial membranes contain relatively large amounts of exposed anionic lipids, while the outer leaflet of the membranes of plants and animals is composed mainly of lipids with no net charge. The charge composition of such membranes can be mimicked with phospholipid vesicles. Large unilamellar vesicles (LUVs) composed of the neutral phospholipid with PC (phosphatidyl choline) or with PG (phosphatidyl glycerol) with negative charges were prepared encapsulating 5(6)-carboxyfluorescein (CF). […] The higher the concentration of MSt-112 the higher is the CF leakage (FIG. 6A). […] Overall the active AMPDs interact with the negatively charged membrane and release the CF.

The subject of assay [2] is Pseudomonas aeruginosa (strain PA01). The assay is described as follows: microbe, parasite or virus in culture. In kind it is cell-based. As to conditions: strain. The essentials:
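P. aeruginosa PAO1 grown overnight in LB, diluted to OD600 0.001 and mixed with ⅔-step peptide dilutions, then incubated at 37 °C for 18–24 h. After MTT staining, the lowest concentration with no visible growth was read by eye as the MIC.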

Assay [3] has as its system Bacillus subtilis (strain BR151). The format is cell-based. As to conditions: strain BR151. The essentials:
(§3)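 Broth microdilution MIC in LB; overnight cultures diluted to OD600 0.001 and mixed 1:1 with ⅔-serially diluted samples (stock 1 mg mL^−1 in H2O), 37° C for 18-24 h. MTT (0.1%) added; MIC read by eye as lowest concentration inhibiting visible growth (yellow).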

Assay [4] deals with Escherichia coli (strain DH5α). The format is cell-based. The conditions noted are these: DH5α. An outline of the steps: as §3
The subject of a further assay is B. subtilis BR151. Description: Preliminary resistant development assay (daily MIC for 15 days). The format is cell-based, Bacillus subtilis. The conditions noted are these: bacteria from 1/2 MIC well re-tested daily. The protocol: MICs of compounds for B. subtilis BR151 were determined daily for 15 days using cells from the well in which the compound concentration was one-half the MIC value (½ MIC well). […] The re-suspension was then diluted to 5×10^5 cells/ml in LB Broth (OD600=0.1 then diluted 1:100 fold to get OD600=0.001) and used to again determine the MIC of the same compound to which those cells had previously been exposed. All MIC determinations were done in duplicate.
For an initial estimation of how fast resistances could arise with AMPDs the MIC was repeated for 15 days in a row and determined each day. After obtaining the MIC value in usual broth dilution assay the bacteria (B. subtilis) from the ½ MIC well were incubated for 2-5 hours and the dilution assay was repeated. This procedure was realized for 15 days and the MICs of each day compared. In case of an increase of the MIC, it is indicative for a resistance against the AMPDs.

A short description of assay [5]: 5(6)-Carboxyfluorescein leakage from lipid vesicles. As to conditions: 10 mM TRIS, 107 mM NaCl, pH 7.4; peptide added at 50 s. How it is done:
as §1, §2
This is another data set of the same source.

Assay [6] deals with Staphylococcus aureus (COL, MRSA reference strain). In kind it is cell-based. As to conditions: COL, reference strain. An outline of the steps: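 Broth microdilution in Müller-Hinton medium, two-fold serial dilutions from a starting 32–256 μg/mL, compounds dissolved in PBS; inoculum about 5×10^5 CFU, incubated 37° C ~18 h. MIC taken as lowest concentration with no visible growth by eye; polymyxin as reference.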

≈ marks a conversion by molar mass, not a printed value. Positions of bridges follow the written chain, without caps; N, C: chain ends. Non-standard residues stand in square brackets, D forms with d. Residues, ends and D or L forms follow the SMILES beside them. Groups on a side chain read outwards from the residue. Chains are numbered I, II in the order given. Dab = NCC[C@H](N)C(=O)O

As to `NCC[C@H](NC(=O)[C@H](CCCCNC(=O)[C@H](Cc1c[nH]c2ccccc12)NC(=O)[C@H](CCN)NC(=O)[C@H](CCCCNC(=O)[C@H](Cc1c[nH]c2ccccc12)NC(=O)[C@@H](N)CCN)NC(=O)[C@H](Cc1c[nH]c2ccccc12)NC(=O)[C@@H](N)CCN)NC(=O)[C@H](Cc1c[nH]c2ccccc12)NC(=O)[C@H](CCN)NC(=O)[C@H](CCCCNC(=O)[C@H](Cc1c[nH]c2ccccc12)NC(=O)[C@@H](N)CCN)NC(=O)[C@H](Cc1c[nH]c2ccccc12)NC(=O)[C@@H](N)CCN)C(=O)N[C@@H](Cc1c[nH]c2ccccc12)C(N)=O` [MSt-176, (DabW)4(KDabW)2(KDabW)] (I: H-[Dab]WK([Trp-Dab])[Dab]WK[Dab]W-NH2 / II: H-[Dab]WK([Trp-Dab])[Dab]W; amide I:6-II:C; N-terminus assumed), the “CF leakage from phosphatidylglycerol LUVs” value in assay [1] is reported as “immediate leakage of CF”. Moreover, the “MIC P. aeruginosa PAO1” value in assay [2] was 1 µg/mL (≈ 0.416 µM). The “MIC B. subtilis BR151” value in assay [3] was found to be 1 µg/mL (≈ 0.416 µM). Moreover, in assay [4], the “MIC E. coli DH5α” value stood at 3 µg/mL (≈ 1.25 µM). Moreover, the “change of MIC over 15 days (resistance)” value in the assay with B. subtilis BR151 is “did not have a significant change of their MIC values over 15 days”. In assay [5], the “CF leakage from phosphatidylcholine LUVs” value is “induced CF release”. Moreover, the “MIC S. aureus (COL, MRSA reference strain)” value in assay [6] is “below 20 μg/mL”.

Source of the values: patent US10336792B2, “Antimicrobial peptide dendrimers” (priority 2014, dated 2019).
